Read-outs that look alike come from different tables or passages of the source.
What was measured:
Assay type in all cases: cell-based
K-562 = assay: SRB colorimetric cell growth inhibition assay, K-562; conditions: Homo sapiens; for GI50: GI=growth inhibition, read-out: GI50 K-562; for CC50: LC=cell killing (cytotoxic effect); for IC (TGI): TGI=total growth inhibition (cytostatic effect), read-out: TGI K-562
Outline: (§1)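 After uninterrupted treatment, cultures are fixed and stained with sulforhodamine B, and absorbance reflects cell growth and viability. Each value represents the average of triplicate wells with SD.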

LoVo = assay: SRB colorimetric cell growth inhibition assay, LoVo; conditions: Homo sapiens; for GI50: GI=growth inhibition, read-out: GI50 LOVO; for CC50: LC=cell killing (cytotoxic effect); for IC (TGI): TGI=total growth inhibition (cytostatic effect), read-out: TGI LOVO
Outline: as §1

SK-BR-3 = assay: SRB colorimetric cell growth inhibition assay, SK-BR-3; conditions: Homo sapiens; for GI50: GI=growth inhibition, read-out: GI50 SK-BR-3; for CC50: LC=cell killing (cytotoxic effect); for IC (TGI): TGI=total growth inhibition (cytostatic effect), read-out: TGI SK-BR-3
Outline: as §1

IGROV = assay: SRB colorimetric cell growth inhibition assay, IGROV
Outline: as §1

A-549 = assay: SRB colorimetric cell growth inhibition assay, A-549; conditions: Homo sapiens; for GI50: GI=growth inhibition, read-out: GI50 A-549; for CC50: LC=cell killing (cytotoxic effect); for IC (TGI): TGI=total growth inhibition (cytostatic effect), read-out: TGI A-549
Outline: as §1

LoVo-Dox = assay: SRB colorimetric cell growth inhibition assay, LoVo-Dox (MDR)
Outline: as §1

SKOV-3 = assay: SRB colorimetric cell growth inhibition assay, SKOV-3; conditions: Homo sapiens; for IC (TGI): TGI=total growth inhibition (cytostatic effect)
Excerpt: Inhibition of Cell Growth by Colorimetric Assay.
A colorimetric type of assay, using sulforhodamine B (SRB) reaction has been adapted for a quantitative measurement of cell growth and viability (following the technique described by P. A. Skehan, et al., J. Natl. Cancer Inst. 1990, 82, 1107-1112).
This form of assay employs 96 well cell culture microplates of 9 mm diameter (T. Mosmann et al., J. of Immunological Methods 1983, 65, 55-63; G. T. Faircloth et al., J. of Tissue and Culture Methods 1988, 11, 201-205).
Most of the cell lines are obtained from American Type Culture Collection (ATCC) derived from different human cancer types.
The values for mean +/− SD of data from triplicate wells are calculated. Some parameters for cellular responses can be calculated: GI=growth inhibition, TGI=total growth inhibition (cytostatic effect) and LC=cell killing (cytotoxic effect).

DU-145 = assay: SRB colorimetric cell growth inhibition assay, DU-145; conditions: Homo sapiens; for GI50: GI=growth inhibition, read-out: GI50 DU-145; for CC50: LC=cell killing (cytotoxic effect); for IC (TGI): TGI=total growth inhibition (cytostatic effect), read-out: TGI DU-145
Outline: as §1

SK-MEL-28 = assay: SRB colorimetric cell growth inhibition assay, SK-MEL-28
Outline: as §1

PANC-1 = assay: SRB colorimetric cell growth inhibition assay, PANC-1; conditions: Homo sapiens; for GI50: GI=growth inhibition, read-out: GI50 PANC-1; for CC50: LC=cell killing (cytotoxic effect); for IC (TGI): TGI=total growth inhibition (cytostatic effect), read-out: TGI PANC-1
Outline: as §1

HT-29 = assay: SRB colorimetric cell growth inhibition assay, HT-29; conditions: Homo sapiens; for GI50: GI=growth inhibition, read-out: GI50 HT-29; for CC50: LC=cell killing (cytotoxic effect); for IC (TGI): TGI=total growth inhibition (cytostatic effect), read-out: TGI HT-29
Outline: as §1

LNCaP = assay: SRB colorimetric cell growth inhibition assay, LNCaP; conditions: Homo sapiens, LNCaP, LN-caP
Outline: as §1

IGROV-ET = assay: SRB colorimetric cell growth inhibition assay, IGROV-ET (ET-743 resistant); conditions: Homo sapiens; for GI50: GI=growth inhibition, read-out: GI50 IGROV-ET; for CC50: LC=cell killing (cytotoxic effect); for IC (TGI): TGI=total growth inhibition (cytostatic effect), read-out: TGI IGROV-ET
Outline: as §1

[1] = K562, K-562, read-out: LC50 K-562
[2] = SK-BR-3, SK-BR-3, read-out: LC50 SK-BR-3
[3] = Homo sapiens, IGROV; GI=growth inhibition; read-out: GI50 IGROV
[4] = Homo sapiens, IGROV; LC=cell killing (cytotoxic effect); read-out: LC50 IGROV
[5] = Homo sapiens, IGROV; TGI=total growth inhibition (cytostatic effect); read-out: TGI IGROV
[6] = A549, A-549, read-out: LC50 A-549
[7] = Homo sapiens, LOVO-DOX; GI=growth inhibition; read-out: GI50 LOVO-DOX
[8] = Homo sapiens, LOVO-DOX; LC=cell killing (cytotoxic effect); read-out: LC50 LOVO-DOX
[9] = Homo sapiens, LOVO-DOX; TGI=total growth inhibition (cytostatic effect); read-out: TGI LOVO-DOX
[10] = SK-OV-3, SKOV-3, GI=growth inhibition, read-out: GI50 SKOV-3
[11] = SK-OV-3, SKOV-3, read-out: TGI SKOV-3
[12] = DU-145, DU-145, read-out: LC50 DU-145
[13] = Homo sapiens, SK-MEL-28, MEL-28; GI=growth inhibition; read-out: GI50 MEL-28
[14] = Homo sapiens, SK-MEL-28, MEL-28; LC=cell killing (cytotoxic effect); read-out: LC50 MEL-28
[15] = PANC-1, PANC-1, read-out: LC50 PANC-1
[16] = HT-29, HT-29, read-out: LC50 HT-29
[17] = IGROV-ET, read-out: LC50 IGROV-ET
[18] = Homo sapiens, SK-MEL-28; MEL-28; TGI=total growth inhibition (cytostatic effect); read-out: TGI MEL-28

## COc1cc(-c2c3c4cc(OC)c(OC(=O)[C@H](C)NC(=O)OC(C)(C)C)cc4oc(=O)c3n3ccc4cc(OC(=O)[C@H](C)NC(=O)OC(C)(C)C)c(OC)cc4c23)ccc1OC(=O)[C@H](C)NC(=O)OC(C)(C)C [Compound 41]
K-562; K562, K-562
  GI50: 1770 nM
  IC (TGI): 3.76 µM
K-562; [1]
  CC50: 8.02 µM
LoVo; LoVo
  GI50: 3310 nM
  IC (TGI): 9.87 µM
LoVo; LoVo, read-out: LC50 LOVO
  CC50: 9.87 µM
SK-BR-3; SK-BR-3, SK-BR-3
  GI50: 1620 nM
  IC (TGI): 4.85 µM
SK-BR-3; [2]
  CC50: 9.87 µM
IGROV; [3]
  GI50: 91.7 nM
IGROV; [4]
  CC50: 4.7 µM
IGROV; [5]
  IC (TGI): 0.492 µM
A-549; A549, A-549
  GI50: 2.42 µM
  IC (TGI): 8.01 µM
A-549; [6]
  CC50: 9.87 µM
LoVo-Dox; [7]
  GI50: 4200 nM
LoVo-Dox; [8]
  CC50: 9.87 µM
LoVo-Dox; [9]
  IC (TGI): 9.87 µM
SKOV-3; [10]
  GI50: 5950 nM
SKOV-3; SK-OV-3, SKOV-3, LC=cell killing (cytotoxic effect), read-out: LC50 SKOV-3
  CC50: 9.87 µM
SKOV-3; [11]
  IC (TGI): 9.87 µM
DU-145; DU-145, DU-145
  GI50: 679 nM
  IC (TGI): 9.87 µM
DU-145; [12]
  CC50: 9.87 µM
SK-MEL-28; [13]
  GI50: 1860 nM
SK-MEL-28; [14]
  CC50: 9.43 µM
SK-MEL-28; Homo sapiens, SK-MEL-28, MEL-28; TGI=total growth inhibition (cytostatic effect); read-out: TGI MEL-28
  IC (TGI): 4.19 µM
PANC-1; PANC-1, PANC-1
  GI50: 2480 nM
  IC (TGI): 9.87 µM
PANC-1; [15]
  CC50: 9.87 µM
HT-29; HT-29, HT-29
  GI50: 3.24 µM
  IC (TGI): 8.89 µM
HT-29; [16]
  CC50: 9.87 µM
LNCaP; GI=growth inhibition, read-out: GI50 LN-caP
  GI50: 2100 nM
LNCaP; LC=cell killing (cytotoxic effect), read-out: LC50 LN-caP
  CC50: 9.87 µM
LNCaP; TGI=total growth inhibition (cytostatic effect), read-out: TGI LN-caP
  IC (TGI): 6.47 µM
IGROV-ET; IGROV-ET
  GI50: 188 nM
  IC (TGI): 0.852 µM
IGROV-ET; [17]
  CC50: 9.87 µM

## COc1cc(-c2c3c4cc(OC)c(OC(=O)[C@@H](N)CCCCNC(=O)OCc5ccccc5)cc4oc(=O)c3n3ccc4c(OC(=O)[C@@H](N)CCCCNC(=O)OCc5ccccc5)c(OC)c(OC)cc4c23)ccc1OC(=O)[C@@H](N)CCCCNC(=O)OCc1ccccc1 [Compound 44]
K-562; K562, K-562
  GI50: 182 nM
  IC (TGI): 0.686 µM
K-562; K562, read-out: LC50 K-562, K-562
  CC50: 5.36 µM
LoVo; LoVo, read-out: LC50 LOVO, LOVO
  CC50: 7.6 µM
LoVo; LOVO
  GI50: 374 nM
  IC (TGI): 3.18 µM
SK-BR-3; SK-BR-3, read-out: LC50 SK-BR-3, SK-BR-3
  CC50: 7.6 µM
SK-BR-3; SK-BR-3
  GI50: 122 nM
  IC (TGI): 0.866 µM
IGROV; Homo sapiens, IGROV, read-out: LC50 IGROV, IGROV; LC=cell killing (cytotoxic effect)
  CC50: 5.06 µM
IGROV; Homo sapiens; IGROV; GI=growth inhibition; read-out: GI50 IGROV
  GI50: 1060 nM
IGROV; Homo sapiens; IGROV; TGI=total growth inhibition (cytostatic effect); read-out: TGI IGROV
  IC (TGI): 2.32 µM
A-549; A549, A-549
  GI50: 5.44 µM
  IC (TGI): 7.6 µM
A-549; A549, read-out: LC50 A-549, A-549
  CC50: 7.6 µM
LoVo-Dox; [7]
  GI50: 608 nM
LoVo-Dox; Homo sapiens, read-out: LC50 LOVO-DOX, LOVO-DOX; LC=cell killing (cytotoxic effect)
  CC50: 7.6 µM
LoVo-Dox; Homo sapiens; LOVO-DOX; TGI=total growth inhibition (cytostatic effect); read-out: TGI LOVO-DOX
  IC (TGI): 2.51 µM
SKOV-3; SK-OV-3, read-out: GI50 SKOV-3
  GI50: 98.8 nM
SKOV-3; SK-OV-3, read-out: LC50 SKOV-3
  CC50: 7.6 µM
SKOV-3; SK-OV-3, read-out: TGI SKOV-3, SKOV-3
  IC (TGI): 1.15 µM
DU-145; DU-145, read-out: LC50 DU-145, DU-145
  CC50: 7.6 µM
DU-145; DU-145
  GI50: 48.5 nM
  IC (TGI): 0.273 µM
SK-MEL-28; [13]
  GI50: 480 nM
SK-MEL-28; Homo sapiens, SK-MEL-28, read-out: LC50 MEL-28, MEL-28; LC=cell killing (cytotoxic effect)
  CC50: 7.6 µM
SK-MEL-28; [18]
  IC (TGI): 3.21 µM
PANC-1; PANC-1, PANC-1
  IC (TGI): 4.35 µM
PANC-1; PANC-1, read-out: LC50 PANC-1, PANC-1
  CC50: 7.6 µM
PANC-1; PANC-1
  GI50: 1170 nM
HT-29; HT-29, read-out: LC50 HT-29, HT-29
  CC50: 7.6 µM
HT-29; HT-29
  GI50: 7.6 µM
  IC (TGI): 7.6 µM
IGROV-ET; IGROV-ET
  GI50: 1180 nM
  IC (TGI): 3.58 µM
IGROV-ET; read-out: LC50 IGROV-ET, IGROV-ET
  CC50: 7.6 µM

## COc1cc(-c2c3c4cc(OC)c(OC(=O)[C@@H](N)CC(C)C)cc4oc(=O)c3n3ccc4c(OC(=O)[C@@H](N)CC(C)C)c(OC)c(OC)cc4c23)ccc1OC(=O)[C@@H](N)CC(C)C [Compound 45]
K-562; K562, K-562
  GI50: 315 nM
  IC (TGI): 1.73 µM
K-562; [1]
  CC50: 8.79 µM
LoVo; LoVo
  GI50: 771 nM
  IC (TGI): 6.71 µM
LoVo; LoVo, read-out: LC50 LOVO
  CC50: 11.5 µM
SK-BR-3; SK-BR-3, SK-BR-3
  GI50: 414 nM
  IC (TGI): 1.58 µM
SK-BR-3; [2]
  CC50: 11.5 µM
IGROV; [3]
  GI50: 1570 nM
IGROV; [4]
  CC50: 10.9 µM
IGROV; [5]
  IC (TGI): 4.12 µM
A-549; A549, A-549
  GI50: 4.35 µM
  IC (TGI): 11.5 µM
A-549; [6]
  CC50: 11.5 µM
LoVo-Dox; [7]
  GI50: 778 nM
LoVo-Dox; [8]
  CC50: 11.5 µM
LoVo-Dox; [9]
  IC (TGI): 4.51 µM
SKOV-3; [10]
  GI50: 175 nM
SKOV-3; SK-OV-3, read-out: LC50 SKOV-3
  CC50: 11.5 µM
SKOV-3; [11]
  IC (TGI): 2.2 µM
DU-145; DU-145, DU-145
  GI50: 105 nM
  IC (TGI): 0.549 µM
DU-145; [12]
  CC50: 11.5 µM
SK-MEL-28; [13]
  GI50: 898 nM
SK-MEL-28; [14]
  CC50: 11.5 µM
SK-MEL-28; [18]
  IC (TGI): 11.5 µM
PANC-1; PANC-1, PANC-1
  GI50: 2030 nM
  IC (TGI): 9.75 µM
PANC-1; [15]
  CC50: 11.5 µM
HT-29; [16]
  CC50: 11.5 µM
HT-29; HT-29
  GI50: 11.5 µM
  IC (TGI): 11.5 µM
IGROV-ET; IGROV-ET
  GI50: 2580 nM
  IC (TGI): 8.07 µM
IGROV-ET; [17]
  CC50: 11.5 µM

From US7396837B2, “Antitumoral analogs of lamellarins” (Pharma Mar, S.A.U., priority 2002, dated 2008)
